According to patent US20260248717A1, “METHOD OF TREATING LOWER TRACT UROTHELIAL CANCER” (TARIS Biomedical LLC, priority 2016, published 2026):

What was measured:
[1] = Comparison of urine gemcitabine and dFdU between minipig study and human phase IB study; format: in vivo; conditions: for urine concentrations: mini pig study versus human phase IB study (FIG. 10)
[2] = in vivo
Method: The ongoing Phase 1b study, TAR-200-101, is designed to evaluate the safety and tolerability of up to 2 dose cycles of gemcitabine administered intravesicularly at a dose of 225 mg for 7 days separated by a rest period of 14 days using the GemRIS system, over a 28-day period in patients with confirmed muscle-invasive transitional cell carcinoma of the bladder (>/=clinical and pathologic stage pT2a), who are scheduled to undergo radical cystectomy (RC) with concomitant lymphadenectomy.
Gemcitabine Releasing Intravesical System (GemRIS) is placed into the bladder through an inserter on Study Day 0 and is removed on Study Day 7. GemRIS releases gemcitabine gradually during the 7 day indwelling time. A second GemRIS is placed in the bladder on Study Day 21 and is removed on Study Day 28 which is the day of the TURBT. GemRIS is a passive, nonresorbable gemcitabine-releasing intravesicular (intravesical) system whose primary mode of action is the controlled release of gemcitabine into the bladder over a 7 day period.
The primary outcome measures are the number of participants with treatment emergent adverse events (TEAEs) coded with MedDRA and graded for severity with CTCAE v4.0. The secondary outcome measures are the number and percentage of participants who are tolerant of GemRIS indwelling on days 1-7 and 21-28. Plasma and urine levels of dFdC and dFdU are also measured. […] Cmax, plasma dFdU Analysis of Cmax (maximum concentration achieved over time) of diflourodeoxyuridine (dFdU) in plasma. [Time Frame: From Day 0 up to Day 28] • 6. Tmax, plasma dFdU. Analysis of Tmax (Day at which maximum concentration was achieved) of diflourodeoxyuridine (dFdU) in plasma. [Time Frame: From Day 0 up to Day 28] • 7. Cavg, plasma dFdU. Analysis of Descriptive statistics (e.g. sample size, mean and median, quartiles, minimum and maximum and box plots) of the concentration of diflourodeoxyuridine (dFdU) in plasma. [Time Frame: From Day 0 up to Day 28] • 8. Cmax, plasma dFdC. Analysis of Cmax (maximum concentration achieved over time) of gemcitabine (deoxydifluorocytidine hydrochloride dFdC) in plasma. [Time Frame: From Day 0 up to Day 28] • 9. Tmax, plasma dFdC. Analysis of Tmax (Day at which maximum concentration was achieved) of gemcitabine (deoxydifluorocytidine hydrochloride—dFdC) in plasma [Time Frame: From Day 0 up to Day 28] • 10. Cavg, plasma dFdC. Analysis of Descriptive statistics (e.g. sample size, mean and median, quartiles, minimum and maximum and box plots) of the concentration of gemcitabine (deoxydifluorocytidine hydrochloride—dFdC) in plasma [Time Frame: From Day 0 up to Day 28]. • 11. Cmax, urine dFdU (Arm 1 only). Analysis of Cmax (maximum concentration achieved over time) of diflourodeoxyuridine (dFdU) in urine. [Time Frame: From Day 0 up to Day 28] • 12. Tmax, urine dFdU (Arm 1 only). Analysis of Cmax (maximum concentration achieved over time) of diflourodeoxyuridine (dFdU) in urine. [Time Frame: From Day 0 up to Day 28] • 13. Tmax, urine dFdU (Arm 1 only). Analysis of Cmax (maximum concentration achieved over time) of diflourodeoxyuridine (dFdU) in urine. [Time Frame: From Day 0 up to Day 28] • 14. Cavg, urine dFdU (Arm 1 only). Analysis of Descriptive statistics (e.g. sample size, mean and median, quartiles, minimum and maximum and box plots) of the concentration of diflourodeoxyuridine (dFdU) in urine. [Time Frame: From Day 0 up to Day 28] • 15. Cmax, urine dFdC (Arm 1 only).

[3] = system: T24 human bladder cancer cells; assay: Orthotopic bladder cancer model in rats, continuous gemcitabine perfusion of the bladder; format: in vivo, Athymic nude rats
From the text: After day 11, the bladders were removed and subject to histological analysis.

[4] = Pilot pharmacokinetic study, 14C-gemcitabine perfused via intra-urinary bladder cannula; format: in vivo, male Sprague-Dawley rats; conditions: 3.85 mg/mL, 300 μL/hr
Method: A pilot study performed was using male Sprague-Dawley rats to determine the pharmacokinetics and pharmacodynamics properties of administering gemcitabine locally and continuously to the bladder. Rats were fitted with intra-urinary bladder cannula (IUBC) and radiolabeled ^14C-gemcitabine was perfused for 6 or 24 hours at a rate of 300 μL/hr at a concentration of 3.85 mg/mL of gemcitabine. The concentration of gemcitabine in various tissue layers were measured.

[5] = system: NBT-II rat bladder tumor cells; assay: Syngeneic rat bladder tumor model, immune effects of continuous local gemcitabine; format: in vivo, Wistar rats
Method: A syngeneic rat model was developed to assess treatment efficacy and immune effects of continuous local administration to the bladder. Wistar rats were cannulated on day 0 and injected with NBT-II rat bladder tumor cells on day 3. Tumors were allowed to grow for 5 days prior to the start of perfusion on day 8. On days 8-13 of the study gemcitabine was perfused at a concentration of 90 μg/ml or 180 μg/ml. The rats were euthanized on day 14. Samples from the tumor, spleen, blood and plasma were collected for histopathology and immunohistochemistry, flow cytometry, and cytokine profiling.
The level of activated CD8+ and CD4+ T cells were also measured in the tumor microenvironment compared to the level of CD+4 and CD8+ regulatory cells.
Plasma TGFβ and IL-10 levels were also measured following delivery of gemcitabine. […] Inhibition of TGFβ is known to impair Treg activation.

[6] = Minipig model, local continuous gemcitabine from an intravesical device for one week; format: in vivo, minipigs; conditions: device removed at day 7; tissue levels estimated from gemcitabine and active metabolite in urine (FIG. 2)
Method: A minipig model was developed to investigate the effect of administering gemcitabine to the bladder locally and continuously using an intravesicular (intravesical) device. For this study, gemcitabine was continuously administered to minipigs for one week using an intravesicular (intravesical) device. The intravesicular (intravesical) device was removed at day 7. The concentration of gemcitabine and active metabolite was measured in the urine of the minipigs following removal of the device. Based upon the level of gemcitabine and active metabolite in the urine, the therapeutic gemcitabine levels in the bladder tissue were estimated.

[7] = rat, in vivo
Method: An orthotopic bladder cancer model was developed in rats to allow evaluation of the efficacy of continuous administration of gemcitabine to the bladder on treatment of a human bladder cancer cell line. Athymic nude rats were cannulated on day 0. The rats were injected with fluorescently labeled T24 human bladder cancer cells on day 3. On day 5 of the study, tumors were observable. Gemcitabine perfusion started on day 6 and continued until day 11. Three concentrations of gemcitabine were tested: 90 μg/ml, 180 μg/ml, and 350 μg/ml.

Compound: O=c1ccn(C2OC(CO)C(O)C2(F)F)c(=O)[nH]1 (stereo not shown) [dFdU, diflourodeoxyuridine]
- urine concentrations [1]: comparable
- plasma concentrations of dFdU (quantifiable samples) [2]: 104 to 284 ng/mL
- plasma samples with low but quantifiable dFdU [2]: 10 of 55
- urine levels [2]: measurable

Compound: Nc1ccn([C@@H]2O[C@H](CO)[C@@H](O)C2(F)F)c(=O)n1 [gemcitabine, 2′,2′-difluorodeoxycytidine]
- urine concentrations [1]: comparable
- levels of gemcitabine excreted in the urine ([1]; minipig study versus human phase IB trial (FIG. 9)): comparable
- plasma concentrations of gemcitabine ([2]; human): < 100 ng/mL
- urine levels [2]: measurable
- tumor volume compared to untreated control (tumor size as net average intensity, FIG. 1) ([3]; 90 μg/ml gemcitabine, continuous perfusion day 6 to day 11, five day study period): significant reduction in tumor volume
- anti-tumor effect with increasing concentration ([3]; 90 μg/ml, 180 μg/ml and 350 μg/ml gemcitabine perfusion): increased with administration of increasing concentrations
- distribution of radiolabel among bladder tissue layers ([4]; perfused for 6 or 24 hours): most concentrated in the adventitia and epithelium, followed by muscle and lamina propria
- penetration into bladder tissue layers ([4]; perfused for 6 or 24 hours (FIG. 3)): able to penetrate into deeper bladder tissues
- plasma TGFβ level compared to control animals ([5]; 180 μg/mL gemcitabine (FIG. 6)): decreased
- plasma IL-10 level ([5]; 180 μg/mL gemcitabine, versus untreated control rats (FIG. 7)): increased
- level of activated CD4+ and CD8+ cells in the spleen ([5]; gemcitabine perfusion days 8-13, versus untreated control rats (FIG. 5)): increased
- ratio of regulatory T cells to activated CD4+ and CD8+ T cells in the tumor microenvironment ([5]; perfusion 90 or 180 μg/mL, days 8-13 (FIG. 4)): decreased
- therapeutically relevant gemcitabine levels in bladder tissue after device removal [6]: persisted well after the device was removed
- hematuria [7]: observed in all perfusion animals
- urine and blood parameters [7]: No major significant differences
